Experimental data published in ChEMBL document CHEMBL4814033, “Unique para-aminobenzenesulfonyl oxadiazoles as novel structural potential membrane active antibacterial agents towards drug-resistant methicillin resistant Staphylococcus aureus” (2021).
Values after ≈ are worked out from the molar mass of the structure shown.

What follows are molecules tested on Staphylococcus aureus (assay: Antibacterial activity against methicillin-resistant Staphylococcus aureus by broth microdilution assay).
Assay type: functional

Point of comparison: C=CCSc1nnc(CS(=O)(=O)c2ccc(NC(C)=O)cc2)o1, MIC 256 µg/mL (≈ 724 µM). Against it:
- CC(=O)Nc1ccc(S(=O)(=O)Cc2nnc(SCc3ccc(F)cc3F)o2)cc1 — 16-fold lower, 16 µg/mL (≈ 36.4 µM)
- CC(=O)Nc1ccc(S(=O)(=O)Cc2nnc(SCC#N)o2)cc1 — the same, 256 µg/mL (≈ 726 µM)
- CC(=O)Nc1ccc(S(=O)(=O)Cc2nnc(SCc3ccc(Cl)cc3Cl)o2)cc1 — 130-fold lower, 2 µg/mL (≈ 4.23 µM)
- CC(=O)Nc1ccc(S(=O)(=O)Cc2nnc(SCC(=O)O)o2)cc1 — 8-fold lower, 32 µg/mL (≈ 86.2 µM)

These molecules were tested on Enterococcus faecalis (assay: Antibacterial activity against Enterococcus faecalis by broth microdilution assay).
Assay type: functional

Point of comparison: CC(=O)Nc1ccc(S(=O)(=O)Cc2nnc(SCc3ccc(Cl)cc3Cl)o2)cc1, MIC 128 µg/mL (≈ 271 µM). Against it:
- CC(=O)Nc1ccc(S(=O)(=O)Cc2nnc(SCc3ccc(F)cc3F)o2)cc1 — the same, 128 µg/mL (≈ 291 µM)
- C=CCSc1nnc(CS(=O)(=O)c2ccc(NC(C)=O)cc2)o1 — 2-fold lower, 64 µg/mL (≈ 181 µM)
- CC(=O)Nc1ccc(S(=O)(=O)Cc2nnc(SCC#N)o2)cc1 — 2-fold higher, 256 µg/mL (≈ 726 µM)
- CC(=O)Nc1ccc(S(=O)(=O)Cc2nnc(SCC(=O)O)o2)cc1 — 2-fold lower, 64 µg/mL (≈ 172 µM)

What follows are molecules tested on Staphylococcus aureus (assay: Antibacterial activity against Staphylococcus aureus by broth microdilution assay).
Assay type: functional

Point of comparison: CC(=O)Nc1ccc(S(=O)(=O)Cc2nnc(SCC#N)o2)cc1, MIC 128 µg/mL (≈ 363 µM). Against it:
- CC(=O)Nc1ccc(S(=O)(=O)Cc2nnc(SCc3ccc(F)cc3F)o2)cc1 — 2-fold lower, 64 µg/mL (≈ 146 µM)
- C=CCSc1nnc(CS(=O)(=O)c2ccc(NC(C)=O)cc2)o1 — 2-fold higher, 256 µg/mL (≈ 724 µM)
- CC(=O)Nc1ccc(S(=O)(=O)Cc2nnc(SCc3ccc(Cl)cc3Cl)o2)cc1 — 2-fold lower, 64 µg/mL (≈ 135 µM)
- CC(=O)Nc1ccc(S(=O)(=O)Cc2nnc(SCC(=O)O)o2)cc1 — the same, 128 µg/mL (≈ 345 µM)

Each molecule was assayed on Staphylococcus aureus (assay: Antibacterial activity against Staphylococcus aureus ATCC 25923 by broth microdilution assay).
Assay type: functional

Point of comparison: C=CCSc1nnc(CS(=O)(=O)c2ccc(NC(C)=O)cc2)o1, MIC 256 µg/mL (≈ 724 µM). Against it:
- CC(=O)Nc1ccc(S(=O)(=O)Cc2nnc(SCc3ccc(F)cc3F)o2)cc1 — 4-fold lower, 64 µg/mL (≈ 146 µM)
- CC(=O)Nc1ccc(S(=O)(=O)Cc2nnc(SCC#N)o2)cc1 — the same, 256 µg/mL (≈ 726 µM)
- CC(=O)Nc1ccc(S(=O)(=O)Cc2nnc(SCc3ccc(Cl)cc3Cl)o2)cc1 — the same, 256 µg/mL (≈ 542 µM)
- CC(=O)Nc1ccc(S(=O)(=O)Cc2nnc(SCC(=O)O)o2)cc1 — 4-fold lower, 64 µg/mL (≈ 172 µM)

These molecules were tested on Staphylococcus aureus (assay: Antibacterial activity against Staphylococcus aureus ATCC 29213 by broth microdilution assay).
Assay type: functional

Point of comparison: CC(=O)Nc1ccc(S(=O)(=O)Cc2nnc(SCC#N)o2)cc1, MIC 256 µg/mL (≈ 726 µM). Against it:
- CC(=O)Nc1ccc(S(=O)(=O)Cc2nnc(SCc3ccc(F)cc3F)o2)cc1 — 8-fold lower, 32 µg/mL (≈ 72.8 µM)
- C=CCSc1nnc(CS(=O)(=O)c2ccc(NC(C)=O)cc2)o1 — the same, 256 µg/mL (≈ 724 µM)
- CC(=O)Nc1ccc(S(=O)(=O)Cc2nnc(SCc3ccc(Cl)cc3Cl)o2)cc1 — 8-fold lower, 32 µg/mL (≈ 67.7 µM)
- CC(=O)Nc1ccc(S(=O)(=O)Cc2nnc(SCC(=O)O)o2)cc1 — 4-fold lower, 64 µg/mL (≈ 172 µM)

What follows are molecules tested on Klebsiella pneumoniae (assay: Antibacterial activity against Klebsiella pneumonia by broth microdilution assay).
Assay type: functional

Point of comparison: CC(=O)Nc1ccc(S(=O)(=O)Cc2nnc(SCc3ccc(F)cc3F)o2)cc1, MIC 128 µg/mL (≈ 291 µM). Against it:
- C=CCSc1nnc(CS(=O)(=O)c2ccc(NC(C)=O)cc2)o1 — 2-fold higher, 256 µg/mL (≈ 724 µM)
- CC(=O)Nc1ccc(S(=O)(=O)Cc2nnc(SCC#N)o2)cc1 — 2-fold higher, 256 µg/mL (≈ 726 µM)
- CC(=O)Nc1ccc(S(=O)(=O)Cc2nnc(SCc3ccc(Cl)cc3Cl)o2)cc1 — 8-fold lower, 16 µg/mL (≈ 33.9 µM)
- CC(=O)Nc1ccc(S(=O)(=O)Cc2nnc(SCC(=O)O)o2)cc1 — 2-fold lower, 64 µg/mL (≈ 172 µM)

These molecules were tested on Escherichia coli (assay: Antibacterial activity against Escherichia coli by broth microdilution assay).
Assay type: functional

Point of comparison: CC(=O)Nc1ccc(S(=O)(=O)Cc2nnc(SCc3ccc(Cl)cc3Cl)o2)cc1, MIC 16 µg/mL (≈ 33.9 µM). Against it:
- CC(=O)Nc1ccc(S(=O)(=O)Cc2nnc(SCc3ccc(F)cc3F)o2)cc1 — 2-fold lower, 8 µg/mL (≈ 18.2 µM)
- C=CCSc1nnc(CS(=O)(=O)c2ccc(NC(C)=O)cc2)o1 — 16-fold higher, 256 µg/mL (≈ 724 µM)
- CC(=O)Nc1ccc(S(=O)(=O)Cc2nnc(SCC#N)o2)cc1 — 16-fold higher, 256 µg/mL (≈ 726 µM)
- CC(=O)Nc1ccc(S(=O)(=O)Cc2nnc(SCC(=O)O)o2)cc1 — 2-fold higher, 32 µg/mL (≈ 86.2 µM)

These molecules were tested on Escherichia coli (assay: Antibacterial activity against Escherichia coli ATCC 25922 by broth microdilution assay).
Assay type: functional

Point of comparison: C=CCSc1nnc(CS(=O)(=O)c2ccc(NC(C)=O)cc2)o1, MIC 256 µg/mL (≈ 724 µM). Against it:
- CC(=O)Nc1ccc(S(=O)(=O)Cc2nnc(SCc3ccc(F)cc3F)o2)cc1 — 2-fold lower, 128 µg/mL (≈ 291 µM)
- CC(=O)Nc1ccc(S(=O)(=O)Cc2nnc(SCC#N)o2)cc1 — the same, 256 µg/mL (≈ 726 µM)
- CC(=O)Nc1ccc(S(=O)(=O)Cc2nnc(SCc3ccc(Cl)cc3Cl)o2)cc1 — 4-fold lower, 64 µg/mL (≈ 135 µM)
- CC(=O)Nc1ccc(S(=O)(=O)Cc2nnc(SCC(=O)O)o2)cc1 — 2-fold lower, 128 µg/mL (≈ 345 µM)

The molecules below were run on Pseudomonas aeruginosa (assay: Antibacterial activity against Pseudomonas aeruginosa by broth microdilution assay).
Assay type: functional

Point of comparison: C=CCSc1nnc(CS(=O)(=O)c2ccc(NC(C)=O)cc2)o1, MIC 256 µg/mL (≈ 724 µM). Against it:
- CC(=O)Nc1ccc(S(=O)(=O)Cc2nnc(SCc3ccc(F)cc3F)o2)cc1 — 4-fold lower, 64 µg/mL (≈ 146 µM)
- CC(=O)Nc1ccc(S(=O)(=O)Cc2nnc(SCC#N)o2)cc1 — the same, 256 µg/mL (≈ 726 µM)
- CC(=O)Nc1ccc(S(=O)(=O)Cc2nnc(SCc3ccc(Cl)cc3Cl)o2)cc1 — 4-fold lower, 64 µg/mL (≈ 135 µM)
- CC(=O)Nc1ccc(S(=O)(=O)Cc2nnc(SCC(=O)O)o2)cc1 — 2-fold lower, 128 µg/mL (≈ 345 µM)

The molecules below were run on Pseudomonas aeruginosa (assay: Antibacterial activity against Pseudomonas aeruginosa ATCC 27853 by broth microdilution assay).
Assay type: functional

Point of comparison: CC(=O)Nc1ccc(S(=O)(=O)Cc2nnc(SCC#N)o2)cc1, MIC 256 µg/mL (≈ 726 µM). Against it:
- CC(=O)Nc1ccc(S(=O)(=O)Cc2nnc(SCc3ccc(F)cc3F)o2)cc1 — 4-fold lower, 64 µg/mL (≈ 146 µM)
- C=CCSc1nnc(CS(=O)(=O)c2ccc(NC(C)=O)cc2)o1 — the same, 256 µg/mL (≈ 724 µM)
- CC(=O)Nc1ccc(S(=O)(=O)Cc2nnc(SCc3ccc(Cl)cc3Cl)o2)cc1 — the same, 256 µg/mL (≈ 542 µM)
- CC(=O)Nc1ccc(S(=O)(=O)Cc2nnc(SCC(=O)O)o2)cc1 — 2-fold lower, 128 µg/mL (≈ 345 µM)

What follows are molecules tested on Acinetobacter baumannii (assay: Antibacterial activity against Acinetobacter baumannii by broth microdilution assay).
Assay type: functional

Point of comparison: CC(=O)Nc1ccc(S(=O)(=O)Cc2nnc(SCC#N)o2)cc1, MIC 128 µg/mL (≈ 363 µM). Against it:
- CC(=O)Nc1ccc(S(=O)(=O)Cc2nnc(SCc3ccc(F)cc3F)o2)cc1 — 2-fold lower, 64 µg/mL (≈ 146 µM)
- C=CCSc1nnc(CS(=O)(=O)c2ccc(NC(C)=O)cc2)o1 — 2-fold higher, 256 µg/mL (≈ 724 µM)
- CC(=O)Nc1ccc(S(=O)(=O)Cc2nnc(SCc3ccc(Cl)cc3Cl)o2)cc1 — 4-fold lower, 32 µg/mL (≈ 67.7 µM)
- CC(=O)Nc1ccc(S(=O)(=O)Cc2nnc(SCC(=O)O)o2)cc1 — 4-fold lower, 32 µg/mL (≈ 86.2 µM)
